“And” between values parts separate entries of the source, which are not always exact repeats. Identical values can stand only once. Inconclusive results and toxic doses are left out. Rule as the data show it: active = T/C of 150% or more; inactive = T/C below 125%.
System: L1210 leukemia ip in BDF1 mice, survival T/C
Assay: NCI In Vivo Anticancer Drug Screen. Data for tumor model L1210 Leukemia (intraperitoneal) in B6D2F1 (BDF1) mice
Settings: endpoint: mean survival time, higher = longer survival
In short: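 In this screen, tumor-bearing mice given compound are compared to those given vehicle, and their survival values are reported as a treated-to-control quotient.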

[1] = dose: 100.0 mg/kg/injection, schedule: Q04DX003 (ip), vehicle: Klucel (hydroxypropylcellulose) (HPC)
[2] = dose: 12.5 mg/kg/injection, schedule: Q04DX003 (ip), vehicle: saline
[3] = dose: 25.0 mg/kg/injection, schedule: Q04DX003 (ip), vehicle: saline
[4] = dose: 100.0 mg/kg/injection, schedule: Q01DX001 (ip), vehicle: carboxymethylcellulose (CMC)
[5] = dose: 200.0 mg/kg/injection, schedule: Q01DX001 (ip), vehicle: carboxymethylcellulose (CMC)
[6] = dose: 400.0 mg/kg/injection, schedule: Q01DX001 (ip), vehicle: carboxymethylcellulose (CMC)
[7] = dose: 100.0 mg/kg/injection, schedule: Q04DX003 (ip), vehicle: saline with Tween-80
[8] = dose: 400.0 mg/kg/injection, schedule: Q04DX003 (ip), vehicle: saline with Tween-80
[9] = dose: 100.0 mg/kg/injection, schedule: Q01DX001 (ip), vehicle: Klucel (hydroxypropylcellulose) (HPC)
[10] = dose: 200.0 mg/kg/injection, schedule: Q01DX001 (ip), vehicle: Klucel (hydroxypropylcellulose) (HPC)
[11] = dose: 400.0 mg/kg/injection, schedule: Q01DX001 (ip), vehicle: Klucel (hydroxypropylcellulose) (HPC)
[12] = dose: 100.0 mg/kg/injection, schedule: Q01DX001 (ip), vehicle: saline
[13] = dose: 200.0 mg/kg/injection, schedule: Q01DX001 (ip), vehicle: saline

Measured: T/C

CCOC(=O)c1ccc(Cl)cc1
inactive: dose: 100.0 mg/kg/injection, schedule: Q01DX009 (ip), vehicle: saline with Tween-80 88 % of control | [1] 97 % of control | dose: 200.0 mg/kg/injection, schedule: Q04DX003 (ip), vehicle: Klucel (hydroxypropylcellulose) (HPC) 102 % of control | dose: 400.0 mg/kg/injection, schedule: Q04DX003 (ip), vehicle: Klucel (hydroxypropylcellulose) (HPC) 102 % of control

CCCCNC(C)(C)CS
inactive: dose: 6.25 mg/kg/injection, schedule: Q01DX009 (ip), vehicle: saline 105 % of control | dose: 12.5 mg/kg/injection, schedule: Q01DX009 (ip), vehicle: saline 94 % of control | [2] 100 % of control | dose: 25.0 mg/kg/injection, schedule: Q01DX009 (ip), vehicle: saline 96 % of control | [3] 94 % of control | dose: 50.0 mg/kg/injection, schedule: Q01DX009 (ip), vehicle: saline 102 % of control | dose: 50.0 mg/kg/injection, schedule: Q04DX003 (ip), vehicle: saline 102 % of control | dose: 75.0 mg/kg/injection, schedule: Q01DX009 (ip), vehicle: saline 105 % of control

O=[N+]([O-])c1cccc(/C=N/Nc2nnc(N/N=C/c3cccc([N+](=O)[O-])c3)c3ccccc23)c1
inactive: dose: 50.0 mg/kg/injection, schedule: Q01DX001 (ip), vehicle: carboxymethylcellulose (CMC) 98 % of control | [4] 98 % of control | [5] 87 % of control | [6] 93 % of control

COc1cc(C(=O)O)ccc1[N+](=O)[O-]
inactive: [7] 102 % of control | dose: 200.0 mg/kg/injection, schedule: Q04DX003 (ip), vehicle: saline with Tween-80 102 % of control | [8] 96 % of control

CC1(c2cccc3ccccc23)OCC2(CCC2)CO1
inactive: [9] 102 % of control | [10] 98 % of control | [11] 100 % of control

O=C(Nc1ccccc1)Nc1cccc2ccccc12
inactive: dose: 100.0 mg/kg/injection, schedule: Q04DX002 (ip), vehicle: gum acacia 102 % of control | dose: 200.0 mg/kg/injection, schedule: Q04DX002 (ip), vehicle: gum acacia 94 % of control | dose: 400.0 mg/kg/injection, schedule: Q04DX002 (ip), vehicle: gum acacia 94 % of control

O=C1NCN(c2ccccc2)C12CCN(CCCS(=O)(=O)c1ccccc1)CC2
inactive: [9] 93 % of control | [10] 94 % of control | [11] 101 % of control

CCCCC(SC(CC)(C(N)=O)c1ccccc1)C(=O)O (configuration not stated)
inactive: [4] 90 % of control | [5] 102 % of control | [6] 90 % of control

CCCCCCCCCCCCCCCC[N+](C)(C)C
inactive: dose: 0.93 mg/kg/injection, schedule: Q04DX003 (ip), vehicle: saline 97 % of control | dose: 1.09 mg/kg/injection, schedule: Q01DX009 (ip), vehicle: saline 100 % of control | dose: 1.87 mg/kg/injection, schedule: Q01DX009 (ip), vehicle: saline 92 % of control | dose: 1.87 mg/kg/injection, schedule: Q04DX003 (ip), vehicle: saline 106 % of control | dose: 2.0 mg/kg/injection, schedule: Q01DX015 (ip), vehicle: saline 94 % of control | dose: 2.18 mg/kg/injection, schedule: Q01DX009 (ip), vehicle: saline 100 % of control | dose: 3.75 mg/kg/injection, schedule: Q01DX009 (ip), vehicle: saline 92 % of control | dose: 3.75 mg/kg/injection, schedule: Q04DX003 (ip), vehicle: saline 95 % of control | dose: 4.0 mg/kg/injection, schedule: Q01DX015 (ip), vehicle: saline 95 % of control | dose: 4.37 mg/kg/injection, schedule: Q01DX009 (ip), vehicle: saline 91 % of control | dose: 6.25 mg/kg/injection, schedule: Q04DX003 (ip), vehicle: saline 101 % of control | dose: 7.5 mg/kg/injection, schedule: Q01DX009 (ip), vehicle: saline 92 % of control | dose: 7.5 mg/kg/injection, schedule: Q04DX003 (ip), vehicle: saline 90 % of control | dose: 11.0 mg/kg/injection, schedule: Q01DX009 (ip), vehicle: saline 113 % of control | dose: 12.5 mg/kg/injection, schedule: Q01DX001 (ip), vehicle: saline 95 % of control | [2] 105 % of control | dose: 25.0 mg/kg/injection, schedule: Q01DX001 (ip), vehicle: saline 98 % of control | dose: 25.0 mg/kg/injection, schedule: Q04DX003 (ip), vehicle: carboxymethylcellulose (CMC) 105 % of control | [3] 90 % of control | dose: 35.0 mg/kg/injection, schedule: Q04DX003 (ip), vehicle: saline 88 % of control | dose: 50.0 mg/kg/injection, schedule: Q04DX003 (ip), vehicle: carboxymethylcellulose (CMC) 100 % of control | [1] 103 % of control

C=CCNC(=O)C[n+]1cccc(C(=O)NC)c1
inactive: [12] 106 % of control | [13] 103 % of control | dose: 400.0 mg/kg/injection, schedule: Q01DX001 (ip), vehicle: saline 97 % of control

CC1Cc2cccc3cc4c(ccc5ccccc54)c1c23 (configuration not stated)
inactive: [9] 98 % of control and 104 % of control | [10] 97 % of control and 103 % of control | [11] 95 % of control and 110 % of control

O=[N+]([O-])c1ccc(OP(=O)(N2CCCCC2)N2CCCCC2)cc1
inactive: dose: 25.0 mg/kg/injection, schedule: Q04DX002 (ip), vehicle: saline with Tween-80 93 % of control | dose: 50.0 mg/kg/injection, schedule: Q04DX002 (ip), vehicle: saline with Tween-80 101 % of control | dose: 100.0 mg/kg/injection, schedule: Q04DX002 (ip), vehicle: saline with Tween-80 93 % of control

O=C(CC(=O)Nc1ccc([N+](=O)[O-])cc1)Nc1ccc([N+](=O)[O-])cc1
inactive: [7] 87 % of control | [8] 92 % of control

CC1CCC2(NC1)OC1CC3C4CCC5CC(OC6OC(CO)C(OC7OC(CO)C(O)C(OC8OCC(O)C(O)C8O)C7OC7OC(CO)C(O)C(O)C7O)C(O)C6O)CCC5(C)C4CCC3(C)C1C2C (configuration not stated)
inactive: dose: 12.5 mg/kg/injection, schedule: Q01DX009 (ip), vehicle: saline with Tween-80 93 % of control | dose: 25.0 mg/kg/injection, schedule: Q01DX009 (ip), vehicle: saline with Tween-80 90 % of control | dose: 50.0 mg/kg/injection, schedule: Q01DX009 (ip), vehicle: saline with Tween-80 94 % of control | dose: 100.0 mg/kg/injection, schedule: Q01DX001 (sc), vehicle: steriod suspending solution 95 % of control | dose: 200.0 mg/kg/injection, schedule: Q01DX001 (sc), vehicle: steriod suspending solution 103 % of control | dose: 400.0 mg/kg/injection, schedule: Q01DX001 (sc), vehicle: steriod suspending solution 97 % of control

CCc1ccc(CCSCCc2ccc(CC)c[n+]2[O-])[n+]([O-])c1
inactive: [12] 96 % of control | [13] 100 % of control

O=C1/C(=C\c2ccc([N+](=O)[O-])cc2)N2CCC1CC2
inactive: dose: 100.0 mg/kg/injection, schedule: Q04DX002 (ip), vehicle: Klucel (hydroxypropylcellulose) (HPC) 102 % of control | dose: 200.0 mg/kg/injection, schedule: Q04DX002 (ip), vehicle: Klucel (hydroxypropylcellulose) (HPC) 94 % of control | dose: 400.0 mg/kg/injection, schedule: Q04DX002 (ip), vehicle: Klucel (hydroxypropylcellulose) (HPC) 105 % of control

CC(C)C1(C(C)C)NC(=O)NC1=O
inactive: dose: 100.0 mg/kg/injection, schedule: Q01DX001 (ip), vehicle: other 98 % of control | dose: 100.0 mg/kg/injection, schedule: Q01DX009 (ip), vehicle: other 101 % of control | dose: 100.0 mg/kg/injection, schedule: Q04DX003 (ip), vehicle: other 102 % of control | dose: 200.0 mg/kg/injection, schedule: Q01DX001 (ip), vehicle: other 98 % of control | dose: 200.0 mg/kg/injection, schedule: Q01DX009 (ip), vehicle: other 106 % of control | dose: 200.0 mg/kg/injection, schedule: Q04DX003 (ip), vehicle: other 98 % of control | dose: 400.0 mg/kg/injection, schedule: Q01DX001 (ip), vehicle: other 106 % of control | dose: 400.0 mg/kg/injection, schedule: Q01DX009 (ip), vehicle: other 107 % of control | dose: 400.0 mg/kg/injection, schedule: Q04DX003 (ip), vehicle: other 100 % of control

FC(F)/C=C\c1ccccc1
inactive: dose: 75.0 mg/kg/injection, schedule: Q01DX001 (ip), vehicle: other 103 % of control | dose: 150.0 mg/kg/injection, schedule: Q01DX001 (ip), vehicle: other 105 % of control | dose: 300.0 mg/kg/injection, schedule: Q01DX001 (ip), vehicle: other 111 % of control

— PubChem BioAssay AID248 (DTP/NCI, 2004)
